Assay results as given in ChEMBL document CHEMBL1148751, “Optimization of the indenone ring of indenoisoquinoline topoisomerase I inhibitors” (2007).

Tests used:
Assay type in all cases: functional
HOP-62 = assay: Cytotoxicity against human HOP62 cells
HCT-116 = assay: Cytotoxicity against human HCT116 cells
SF-539 = assay: Cytotoxicity against human SF539 cells
UACC-62 = assay: Cytotoxicity against human UACC62 cells
OVCAR-3 = assay: Cytotoxicity against human OVCAR-3 cells
SN12C = assay: Cytotoxicity against human SN12C cells
DU-145 = assay: Cytotoxicity against human DU145 cells
MDA-MB-435 = assay: Cytotoxicity against human MDA-MB-435 cells

Row | SMILES | GI50 (HOP-62) | GI50 (HCT-116) | GI50 (SF-539) | GI50 (UACC-62) | GI50 (OVCAR-3) | GI50 (SN12C) | GI50 (DU-145) | GI50 (MDA-MB-435)
1 | COc1ccc2c(c1)C(=O)c1c-2n(CCCN=[N+]=[N-])c(=O)c2cc(OC)c(OC)cc12 | 11.5 µM | 27.5 µM | 56.2 µM | 20.9 µM | 49 µM | 64.6 µM | 26.3 µM | > 100 µM
2 | COc1cc2c3c(n(CCCN=[N+]=[N-])c(=O)c2cc1OC)-c1ccc(F)cc1C3=O | 4.17 µM | 4.17 µM | 3.24 µM | 5.25 µM | 6.17 µM | 8.32 µM | 4.17 µM | 38 µM
3 | CCOc1ccc2c(c1)C(=O)c1c-2n(CCCBr)c(=O)c2cc([N+](=O)[O-])ccc12 | 5.75 µM | 6.03 µM | 5.62 µM | 5.75 µM | 23.4 µM | 11.7 µM | 4.27 µM | 30.9 µM
4 | CS(=O)(=O)c1ccc2c(c1)C(=O)c1c-2n(CCCBr)c(=O)c2cc([N+](=O)[O-])ccc12 | 8.13 µM | 7.41 µM | 24 µM | 4.27 µM | 28.8 µM | 6.92 µM | 6.31 µM | 83.2 µM
5 | Cc1ccc(S(=O)(=O)Oc2ccc3c(c2)C(=O)c2c-3n(CCCBr)c(=O)c3cc([N+](=O)[O-])ccc23)cc1 | 7.59 µM | > 100 µM | 50.1 µM | 23.4 µM | 81.3 µM | > 100 µM | 58.9 µM | > 100 µM
6 | Cc1ccc2c(c1)C(=O)c1c-2n(CCCN=[N+]=[N-])c(=O)c2cc([N+](=O)[O-])ccc12 | 72.4 µM | 20.4 µM | > 100 µM | 30.2 µM | > 100 µM | 58.9 µM | > 100 µM | > 100 µM
7 | N#Cc1ccc2c(c1)C(=O)c1c-2n(CCCN=[N+]=[N-])c(=O)c2cc([N+](=O)[O-])ccc12 | 15.1 µM | 3.89 µM | > 50.1 µM | 3.63 µM | > 50.1 µM | 46.8 µM | 7.08 µM | > 50.1 µM
8 | COC(=O)c1ccc2c(c1)C(=O)c1c-2n(CCCCl)c(=O)c2cc([N+](=O)[O-])ccc12 | 43.7 µM | 41.7 µM | 83.2 µM | 27.5 µM | 95.5 µM | > 100 µM | 37.2 µM | > 100 µM
9 | O=C1c2cc(-c3ccccc3)ccc2-c2c1c1ccc([N+](=O)[O-])cc1c(=O)n2CCCBr | 18.2 µM | > 50.1 µM | 16.6 µM | 49 µM | > 50.1 µM | > 50.1 µM | > 50.1 µM | > 50.1 µM
10 | COc1cc2c3c(n(CCCN)c(=O)c2cc1OC)-c1ccc(N(C)C)cc1C3=O | 17 µM | 3.63 µM | 1.9 µM | 21.9 µM | 17.8 µM | 17 µM | 2.4 µM | 17.8 µM
